According to patent US10576057B2, “Methods for treating muscle wasting and degeneration diseases” (NEWTREE CO., LTD., priority 2015, dated 2020):

What was measured:
[1] = test system: p-mTOR; assay: p-mTOR protein expression by western blot in L6 muscle cells; assay type: cell-based; details: 5 μM, differentiation 6 days, vs 0.01% DMSO control
Description: (§1) L6 myoblasts (ATCC, Manassas, Va., USA) were added to a 6-well plate with Dulbecco's modified Eagle's Media (DMEM; Hyclone) containing 10% fetal bovine serum (FBS; Hyclone, Logan, Utah, USA) at a concentration of 2×10^5 cells/mL. When the cell density reached about 80 to 85%, the medium in the wells was removed. The ethanol extract of Mori Cortex Radicis (20 μg/mL) prepared in Example 1-2, the hot water extract of Mori Cortex Radicis (20 μg/mL) prepared in Example 1-5, the morusin (5 μM) and the kuwanon G (5 μM) isolated and purified in Example 2 were dissolved in DMEM (Hyclone) containing 2% HS (Hyclone), followed by its treatment to the cells to induce myotube differentiation. Meanwhile, a group treated with 0.01% DMSO instead of the sample was used as a control group. This procedure was carried out for 6 days in two days to differentiate and then dissolved in NP-40 buffer solution (ELPIS-Biotech, Daejeon, Republic of Korea) containing proteinase inhibitor cocktail. The cells dissolved in the buffer solution were transferred to a 1.5-mL tube and centrifuged at 13,000 rpm for 10 minutes to take only a supernatant. The supernatant was quantified using Bradford (Bio-Rad Laboratories Inc., Hercules, Calif., USA). The quantified proteins were boiled for 5 minutes, separated by electrophoresis on 10% SDS-PAGE, and were transferred to the nitrocellulose membrane. […]

[2] = test system: p-p70S6K; assay: p-p70S6K protein expression by western blot in L6 muscle cells; assay type: cell-based
Description: as §1, with “The ethanol extract of Mori Cortex Radicis (20 μg/mL) prepared in Example 1-2, the hot water extract of Mori Cortex Radicis (20 μg/mL) prepared in Example 1-5, the morusin (5 μM) and the kuwanon G (5 μM) isolated and purified in Example 2 were dissolved in DMEM (Hyclone) containing 2% HS (Hyclone), followed by its treatment to the cells to induce myotube differentiation.” left out, “membrane. A p-mTOR primary antibody (Cellular signaling technology, Beverly, Mass., USA) was diluted with 2.5% bovine serum albumin (BSA) at a ratio of 1:1000 and reacted with proteins transferred to the nitrocellulose membrane for 20 hours at room temperature.” for “membrane.”

[3] = test system: p-4EBP1; assay: p-4EBP1 protein expression by western blot in L6 muscle cells; assay type: cell-based
Description: as §1, with “The ethanol extract of Mori Cortex Radicis (20 μg/mL) prepared in Example 1-2, the hot water extract of Mori Cortex Radicis (20 μg/mL) prepared in Example 1-5, the morusin (5 μM) and the kuwanon G (5 μM) isolated and purified in Example 2 were dissolved in DMEM (Hyclone) containing 2% HS (Hyclone), followed by its treatment to the cells to induce myotube differentiation.” left out, “membrane. A p-mTOR primary antibody (Cellular signaling technology, Beverly, Mass., USA) was diluted with 2.5% bovine serum albumin (BSA) at a ratio of 1:1000 and reacted with proteins transferred to the nitrocellulose membrane for 20 hours at room temperature.” for “membrane.”

[4] = test system: MyoD; assay: MyoD mRNA expression by RT-PCR in L6 muscle cells; assay type: cell-based; details: 6 days
Description: (§2) Muscle cells, L6 myoblasts (ATCC) were added to a 6-well plate at 2×10^5 cells/ml together with DMEM (Hyclone) containing 10% FBS (Hyclone). When the cell density reached about 80 to 85%, the medium in the wells was removed. […] Meanwhile, a group treated with 0.01% DMSO instead of the sample was used as a control group. This procedure was carried out for 6 days in two days to differentiate and total RNA was isolated using TRIzol reagent (Invitrogen. Carlsbad, Calif., USA). The isolated total RNA was quantified using NanoDrop 1000 (Thermo Fisher Scientific Inc., MA, USA). Quantified 16 μL of RNA was synthesized into cDNA using Reverse Transcriptase Premix (ELPIS-Biotech) and PCR machine (Gene Amp PCR System 2700: Applied Biosystems, MA, USA) at 42° C. for 55 minutes and 70° C. for 15 minutes. 4 μL out of 16 μL cDNA was amplified by PCR using the following specific primers (Bioneer, Daejeon, Republic of Korea) and PCR premix (ELPIS-Biotech). PCR was performed by repeating 30 cycles of 95° C. for 30 seconds, 60° C. for 1 minute, and 72° C. for 1 minute.
(§3) PCR-amplified cDNA was separated by electrophoresis on 1.5% agarose gel and cDNA band was identified using G:BOX EF imaging system (Syngene).
(§4) L6 myoblast (ATCC) were cultured in the same manner as in Example 7. […]

[5] = test system: myogenin; assay: myogenin mRNA expression by RT-PCR in L6 muscle cells; assay type: cell-based; details: 6 days
Description: as §2, §3, §4

[6] = test system: atrogin-1; assay: atrogin-1 mRNA expression by RT-PCR in TNF-α-treated L6 muscle cells; assay type: cell-based; details: differentiated L6 muscle cells, 50 ng/mL TNF-α
Description: (§5) L6 myoblast (ATCC) was added to a 6-well plate at 2×10^5 cells/ml together with DMEM (Hyclone) containing 10% FBS (Hyclone). When the cell density reached about 80% to 85%, the medium in the wells was removed and myotube differentiation was induced by treating the cells with DMEM (Hyclone) containing 2% HS (Hyclone). The medium was replaced with fresh medium every two days and the differentiation was carried out for a total of 6 days. After differentiation, 0.1 μM and 1 μM of morusin prepared in Example 2-1 were respectively dissolved in DMEM (Hyclone) containing 50 ng/mL tumor necrosis factor alph (TNF-α; PeproTech, Rocky Hills, N.J., USA), followed by their treatment on the cells. After 6 hours, total RNA was isolated using TRIzol reagent (Invitrogen). The isolated total RNA was quantified using NanoDrop 1000 (Thermo Fisher Scientific Inc.). The quantified 16 μL of RNA was synthesized into cDNA using Reverse Transcriptase Premix (ELPIS-Biotech) and PCR machine (Gene Amp PCR System 2700: Applied Biosystems) at 42° C. for 55 minutes and at 70° C. for 15 minutes. The PCR was performed by repeating 30 cycles at 95° C. for 30 seconds, at 60° C. for 1 minute and at 72° C. for 1 minute with 4 μl of 16 μl cDNA, the following specific primers (Bioneer), and PCR premix (ELPIS-Biotech): […]

[7] = test system: MuRF-1; assay: MuRF-1 mRNA expression by RT-PCR in TNF-α-treated L6 muscle cells; assay type: cell-based; details: differentiated L6 muscle cells, 50 ng/mL TNF-α
Description: as §5

[8] = test system: Wistar rats; assay: Muscle mass in TNF-α-induced muscular atrophy animal model; assay type: in vivo; details: for increase in weight of muscle: 300 mg/kg body weight, 8 weeks, vs control group, p<0.01; for Average calf muscle weight: TNF-α-induced atrophy, 300 mg/kg body weight once a day for 8 weeks, right calf
Description: Five-week-old Wistar rats were adapted for 1 week and 100 ng/g of TNF-α was supplied for 2 weeks to induce muscular atrophy. Then, groups were randomly assigned on the basis of body weight and divided into five groups of 8 rats per each group. 500 mg/kg body weight of the ethanol extract of Mori Cortex Radicis prepared in Example 1-2, 500 mg/kg body weight of the hot-water extract of Mori Cortex Radicis prepared in Example 1-5, 300 mg/kg body weight of the morusin prepared in Example 2-1, and 300 mg/kg body weight of the kuwanon G prepared in Example 2-2 were suspended in 0.25% carboxymethylcellulose, respectively, followed by their administration on experimental groups once a day for 8 weeks at regular time. A control group was administered with TNF-α suspended in the same amount of 0.25% carboxymethyl cellulose ingested by the experimental groups.
After 8 weeks of administration, the muscles under the right calf were excised and weighed with microbalance (Mettler PE 160, USA).

SMILES: CC(C)=CCc1c(-c2ccc(O)cc2O)oc2c([C@H]3C=C(C)C[C@@H](c4ccc(O)cc4O)[C@@H]3C(=O)c3ccc(O)cc3O)c(O)cc(O)c2c1=O [Kuwanon G, 8-[(1S,5R,6S)-6-(2,4-Dihydroxybenzoyl)-5-(2,4-dihydroxyphenyl)-3-methyl-2-cyclohexen-1-yl]-2-(2,4-dihydroxyphenyl)-5,7-dihydroxy-3-(3-methyl-2-buten-1-yl)-4H-chromen-4-one]
- expression of p-mTOR [1]: increased
- expression of p-p70S6K protein ([2]; 1 μM and 5 μM): increased
- expression of p-4EBP1 protein ([3]; 1 μM and 5 μM): increased
- expression of MyoD mRNA ([4]; 1 μM and 5 μM): increased
- expression of myogenin mRNA ([5]; 1 μM and 5 μM): increased
- mRNA expression of atrogin-1 ([6]; concentration not given): decreased
- mRNA expression of MuRF-1 ([7]; concentration not given): decreased
- increase in weight of muscle [8]: 22.60%
- Average calf muscle weight [8]: 537 ± 15.2 mg

SMILES: CC(C)=CCc1c(-c2ccc(O)cc2O)oc2c3c(cc(O)c2c1=O)OC(C)(C)C=C3 [Morusin, 2-(2,4-Dihydroxyphenyl)-5-hydroxy-8,8-dimethyl-3-(3-methyl-2-buten-1-yl)-4H,8H-benzo[1,2-b:3,4-b′]dipyran-4-one]
- expression of p-mTOR [1]: increased
- expression of p-p70S6K protein ([2]; 0.1 and 1 μM): increased
- expression of p-4EBP1 protein ([3]; 0.1 and 1 μM): increased
- expression of MyoD mRNA ([4]; 0.1 and 1 μM): increased
- expression of myogenin mRNA ([5]; 0.1 and 1 μM): increased
- mRNA expression of atrogin-1 ([6]; 0.1 μM and 1 μM, 6 hours): decreased
- mRNA expression of MuRF-1 ([7]; 0.1 μM and 1 μM, 6 hours): decreased
- increase in weight of muscle [8]: 23.97%
- Average calf muscle weight [8]: 543 ± 32.9 mg
